# Test results: patent publication US12091405B2, “Substituted pyrazole compounds as indoleamine 2,3-dioxygenase inhibitors” (Merck Sharp & Dohme LLC, priority 2018, dated 2024)
# Target: IDO1 (Homo sapiens, UniProt P14902)
# Experiment: IDO1 Cellular Assay in HeLa Cells Stimulated with IFNγ
# Assay type: cell-based
# Details: IFNγ 100 ng/mL, 300 uM L-tryptophan, about 48 hours, fluorescence readout, read-out: IDO1 HELA Cell Assay, IC50
# Method: Biological Assays IDO1 Cellular Assay in HeLa Cells Stimulated with IFNγ
# HeLa cells were cultured in complete HeLa culture medium (90% EMEM, 10% heat-inactivated fetal bovine serum) and expanded to about 1×10^9 cells. The cells were then collected and frozen down at 1×10^7 cells/vial in 1 mL frozen medium (90% complete HeLa culture medium, 10% DMSO).
# Compounds to be tested were serially diluted in ten 3-fold steps in DMSO starting from 10 mM DMSO stocks in Echo low volume plate(s). Compound dilutions or DMSO alone were then dispensed from the dilution plate(s) into Greiner black 384-well assay plate(s) (catalog #781086, 50 nL/well) using an Echo 550 acoustic liquid handler (Labcyte).
# Frozen HeLa cells were thawed and transferred into HeLa assay medium (99% complete HeLa culture medium, 1% Pen/Strep) with 20 mL medium/vial of cells. The cells were spun down at 250 g in a table top centrifuge for 5 min and suspended in same volume of HeLa assay medium. The cells were then counted and adjusted to a density of 2×10^5 cells/mL in HeLa assay medium. Sterile L-tryptophan were added to the cells with final concentration of 300 uM L-tryptophan. A small aliquot (2 mL/plate) of HeLa cells were set aside and were not treated with IFNγ, to serve as the Max-E control.
# HeLa cells with and without IFNγ were dispensed to the respective wells of 384-well assay plates containing the compounds. The plates were incubated for about 48 hours at a 37° C., 5% CO2 incubator. Afterwards, 12 μL of 0.5 M methyl isonipecotate in dimethyl sulfoxide were added into each well and the plates were sealed and incubated at 37° C. without CO2 overnight. The plates were centrifuged for 1 min at 200×g. The resulting fluorescence was measured in a Spectramax plate reader (Molecular Devices) with a 400 nm excitation filter and a 510 nm emission filter.
# The fluorescence intensity of each well was corrected for the background observed in wells with non-IFNγ-treated cells and was expressed as a fraction of the intensity observed in wells of IFNγ-treated cells and DMSO only. Potencies were calculated by linear least squares fit to the four parameter logistic IC50 equation.
# Compounds disclosed herein generally have IC50 of about 0.1 nM to about 20,000 nM, or more specifically, about 1 nM to about 10,000 nM, or more specifically, about 5 nM to about 5,000 nM, or more specifically, about 10 nM to about 1,000 nM, or still more specifically, about 10 nM to about 500 nM.
# Chain of IDO1 (P14902 whole entry): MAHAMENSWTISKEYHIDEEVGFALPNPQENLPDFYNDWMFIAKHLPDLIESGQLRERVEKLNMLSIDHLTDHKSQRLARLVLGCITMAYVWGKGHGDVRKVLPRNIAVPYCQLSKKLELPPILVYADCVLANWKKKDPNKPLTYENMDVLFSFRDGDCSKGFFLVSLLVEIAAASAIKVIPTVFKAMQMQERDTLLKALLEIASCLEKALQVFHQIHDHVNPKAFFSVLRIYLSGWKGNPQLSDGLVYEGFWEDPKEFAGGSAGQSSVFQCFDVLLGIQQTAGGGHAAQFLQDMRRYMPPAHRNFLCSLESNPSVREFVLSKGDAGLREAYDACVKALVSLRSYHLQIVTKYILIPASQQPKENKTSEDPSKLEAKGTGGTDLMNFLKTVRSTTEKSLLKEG
row,SMILES,IC50
1,"Cc1cccc(C2CCN(C(=O)Cn3nc(C(=O)N4CCC(O)CC4)c4c3CCC4)CC2(F)F)c1C (single isomer, unassigned) [Example 15, 1-(4-(2,3-dimethylphenyl)-3,3-difluoropiperidin-1-yl)-2-(3-(4-hydroxypiperidine-1-carbonyl)-5,6-dihydrocyclopenta[c]pyrazol-1(4H)-yl)ethanone]",11.6 nM
2,"Cc1c(C2CCN(C(=O)Cn3nc(C(=O)N4CCC(O)(CF)CC4)c4c3C[C@H]3C[C@@H]43)CC2)cccc1C(F)(F)F [Example 1, 2-((3bR,4aR)-3-(4-(fluoromethyl)-4-hydroxypiperidine-1-carbonyl)-3b,4,4a,5-tetrahydro-1H-cyclopropa[3,4]cyclopenta[1,2-c]pyrazol-1-yl)-1-(4-(2-methyl-3-(trifluoromethyl)phenyl)piperidin-1-yl)ethanone]",0.8 nM
3,"Cc1c(C2CCN(C(=O)Cn3nc(C(=O)N4CCC(O)CC4)c4c3C[C@H]3C[C@@H]43)CC2)cccc1C(F)(F)F [Example 2, 2-((3bR,4aR)-3-(4-hydroxypiperidine-1-carbonyl)-3b,4,4a,5-tetrahydro-1H-cyclopropa[3,4]cyclopenta[1,2-c]pyrazol-1-yl)-1-(4-(2-methyl-3-(trifluoromethyl)phenyl)piperidin-1-yl) ethanone]",1.6 nM
4,"Cc1c(C2CCN(C(=O)Cn3nc(C(=O)N4CCN(C(=O)CO)CC4)c4c3C[C@H]3C[C@@H]43)CC2)cccc1C(F)(F)F [Example 3, 2-hydroxy-1-(4-((3bR,4aR)-1-(2-(4-(2-methyl-3-(trifluoromethyl)phenyl)piperidin-1-yl)-2-oxoethyl)-3b,4,4a,5-tetrahydro-1H-cyclopropa[3,4]cyclopenta[1,2-c]pyrazole-3-carbonyl)piperazin-1-yl)ethanone]",1.3 nM
5,"Cc1c(C2CCN(C(=O)Cn3nc(C(=O)N4CCO[C@H](CO)C4)c4c3C[C@H]3C[C@@H]43)CC2)cccc1C(F)(F)F [Example 4, 2-((3bR,4aR)-3-((S)-2-(hydroxymethyl)morpholine-4-carbonyl)-3b,4,4a,5-tetrahydro-1H-cyclopropa[3,4]cyclopenta[1,2-c]pyrazol-1-yl)-1-(4-(2-methyl-3-(trifluoromethyl)phenyl)piperidin-1-yl)ethanone]",3 nM
6,"Cc1c(C2CCN(C(=O)Cn3nc(C(=O)N4CCO[C@@H](CO)C4)c4c3C[C@H]3C[C@@H]43)CC2)cccc1C(F)(F)F [Example 5, 2-((3bR,4aR)-3-((R)-2-(hydroxymethyl)morpholine-4-carbonyl)-3b,4,4a,5-tetrahydro-1H-cyclopropa[3,4]cyclopenta[1,2-c]pyrazol-1-yl)-1-(4-(2-methyl-3-(trifluoromethyl)phenyl)piperidin-1-yl)ethanone]",1.7 nM
7,"Cc1c(C2CCN(C(=O)Cn3nc(C(=O)N4CCN(CC(N)=O)CC4)c4c3C[C@H]3C[C@@H]43)CC2)cccc1C(F)(F)F [Example 6, 2-(4-((3bR,4aR)-1-(2-(4-(2-methyl-3-(trifluoromethyl)phenyl)piperidin-1-yl)-2-oxoethyl)-3b,4,4a,5-tetrahydro-1H-cyclopropa[3,4]cyclopenta[1,2-c]pyrazole-3-carbonyl)piperazin-1-yl)acetamide]",2.5 nM
8,"Cc1cccc(C2(F)CCN(C(=O)Cn3nc(C(=O)N4CCC(OCCO)CC4)c4c3C[C@H]3C[C@@H]43)CC2)c1C [Example 8, 1-(4-(2,3-dimethylphenyl)-4-fluoropiperidin-1-yl)-2-((3bR,4aR)-3-(4-(2-hydroxyethoxy)piperidine-1-carbonyl)-3b,4,4a,5-tetrahydro-1H-cyclopropa[3,4]cyclopenta[1,2-c]pyrazol-1-yl)ethanone]",1 nM
9,"Cc1cccc(C2(F)CCN(C(=O)Cn3nc(C(=O)N4CCC(O)CC4)c4c3C[C@H]3C[C@@H]43)CC2)c1C [Example 10, 1-(4-(2,3-dimethylphenyl)-4-fluoropiperidin-1-yl)-2-((3bR,4aR)-3-(4-hydroxypiperidine-1-carbonyl)-3b,4,4a,5-tetrahydro-1H-cyclopropa[3,4]cyclopenta[1,2-c]pyrazol-1-yl)ethanone]",3.4 nM
10,"Cc1cccc(C2(F)CCN(C(=O)Cn3nc(C(=O)N4CCN(C(=O)CO)CC4)c4c3C[C@H]3C[C@@H]43)CC2)c1C [Example 11, 1-(4-(2,3-dimethylphenyl)-4-fluoropiperidin-1-yl)-2-((3bR,4aR)-3-(4-(2-hydroxyacetyl)piperazine-1-carbonyl)-3b,4,4a,5-tetrahydro-1H-cyclopropa[3,4]cyclopenta[1,2-c]pyrazol-1-yl)ethanone]",5.4 nM
11,"CC(=O)NC1CCN(C(=O)c2nn(CC(=O)N3CCC(F)(c4cccc(C)c4C)CC3)c3c2[C@@H]2C[C@@H]2C3)CC1 [Example 12, N-(1-((3bR,4aR)-1-(2-(4-(2,3-dimethylphenyl)-4-fluoropiperidin-1-yl)-2-oxoethyl)-3b,4,4a,5-tetrahydro-1H-cyclopropa[3,4]cyclopenta[1,2-c]pyrazole-3-carbonyl)piperidin-4-yl)acetamide]",2.1 nM
12,"Cc1cccc(C2(F)CCN(C(=O)Cn3nc(C(=O)N4CCC(N)CC4)c4c3C[C@H]3C[C@@H]43)CC2)c1C [Example 13, 2-((3bR,4aR)-3-(4-aminopiperidine-1-carbonyl)-3b,4,4a,5-tetrahydro-1H-cyclopropa[3,4]cyclopenta[1,2-c]pyrazol-1-yl)-1-(4-(2,3-dimethylphenyl)-4-fluoropiperidin-1-yl)ethanone]",90.4 nM
13,"O=C(Cn1nc(C(=O)N2CCC(O)CC2)c2c1CCC2)N1CCC(c2cccc3c2CC3)CC1 [Example 16, 1-(4-(bicyclo[4.2.0]octa-1(6),2,4-trien-2-yl)piperidin-1-yl)-2-(3-(4-hydroxypiperidine-1-carbonyl)-5,6-dihydrocyclopenta[c]pyrazol-1(4H)-yl)ethanone]",25 nM
14,"Cc1cccc(C2CCN(C(=O)Cn3nc(C(=O)N4CC[C@H](O)[C@@H](F)C4)c4c3C[C@H]3C[C@@H]43)CC2)c1C [Example 23, 1-[4-(2,3-dimethylphenyl)piperidin-1-yl]-2-{(3bR,4aR)-3-[(3S,4S)-3-fluoro-4-hydroxypiperidine-1-carbonyl]-3b,4,4a,5-tetrahydro-1H-cyclopropa[3,4]cyclopenta[1,2-c]pyrazol-1-yl}ethan-1-one]",1.1 nM
15,"Cc1cccc(C2CCN(C(=O)Cn3nc(C(=O)N4CC[C@@H](O)[C@H](F)C4)c4c3C[C@H]3C[C@@H]43)CC2)c1C [Example 24, 1-[4-(2,3-dimethylphenyl)piperidin-1-yl]-2-{(3bR,4aR)-3-[(3R,4R)-3-fluoro-4-hydroxypiperidine-1-carbonyl]-3b,4,4a,5-tetrahydro-1H-cyclopropa[3,4]cyclopenta[1,2-c]pyrazol-1-yl}ethan-1-one]",1.2 nM
16,"Cc1cccc(C2CCN(C(=O)Cn3nc(C(=O)N4CC[C@@H](O)[C@@H](F)C4)c4c3C[C@@H]3C[C@H]43)CC2)c1C [Example 27, 1-[4-(2,3-dimethylphenyl)piperidin-1-yl]-2-{(3bS,4aS)-3-[(3S,4R)-3-fluoro-4-hydroxypiperidine-1-carbonyl]-3b,4,4a,5-tetrahydro-1H-cyclopropa[3,4]cyclopenta[1,2-c]pyrazol-1-yl}ethan-1-one]",36.8 nM
17,"Cc1cccc(C2CCN(C(=O)Cn3nc(C(=O)N4CCN(C(=O)CO)CC4)c4c3C[C@@H]3C[C@H]43)CC2)c1C [Example 28, 1-[4-(2,3-dimethylphenyl)piperidin-1-yl]-2-{(3bS,4aS)-3-[4-(hydroxyacetyl)piperazine-1-carbonyl]-3b,4,4a,5-tetrahydro-1H-cyclopropa[3,4]cyclopenta[1,2-c]pyrazol-1-yl}ethan-1-one]",41.2 nM
18,"Cc1cccc(C2CCN(C(=O)Cn3nc(C(=O)N4CC[C@H](O)[C@H](F)C4)c4c3C[C@@H]3C[C@H]43)CC2)c1C [Example 29, 1-[4-(2,3-dimethylphenyl)piperidin-1-yl]-2-{(3bS,4aS)-3-[(3R,4S)-3-fluoro-4-hydroxypiperidine-1-carbonyl]-3b,4,4a,5-tetrahydro-1H-cyclopropa[3,4]cyclopenta[1,2-c]pyrazol-1-yl}ethan-1-one]",54.2 nM
19,"C[C@@H]1CN(C(=O)c2nn(CC(=O)N3CCC(C4CCCCC4)CC3)c3c2CCC3)C[C@H](C)O1 [Example 30, 1-(4-cyclohexylpiperidin-1-yl)-2-{3-[(2R,6S)-2,6-dimethylmorpholine-4-carbonyl]-5,6-dihydrocyclopenta[c]pyrazol-1(4H)-yl}ethan-1-one]",299 nM
20,"Cc1cccc(C2CCN(C(=O)Cn3nc(C(=O)N4CCC(O)CC4)c4c3CCCC4)CC2)c1C [Example 34, 1-(4-(2,3-dimethylphenyl)piperidin-1-yl)-2-(3-(4-hydroxypiperidine-1-carbonyl)-4,5,6,7-tetrahydro-1H-indazol-1-yl)ethanone]",1.2 nM
